Reference: PMC10915170, “New oxadiazole and pyrazoline derivatives as anti-proliferative agents targeting EGFR-TK: design, synthesis, biological evaluation and molecular docking study” (Scientific Reports, 2024)
Where “and” joins values, the source holds several entries; their conditions need not be identical. Equal entries are not always repeated. Entries after “also recorded” stand apart in the source; their conditions may differ. Where two headings read alike, the source gives them in different places.

What was measured:
[1] = test system: HepG-2 cells; assay: Intracellular ROS accumulation assay (ELISA); assay type: cell-based, human; settings: for ROS: HepG-2, mean ± SD of three experiments, control 105.6 ± 10.8
From the text: Under both physiological and pathological circumstances, reactive oxygen species (ROS) such H2O2 and superoxides play a significant role in the activation of apoptosis. It's interesting to note that mitochondria both produce and absorb ROS.
Intracellular reactive oxygen species (ROS) were detected by the EIAab ROS ELISA kit according to the reported method.

[2] = test system: HepG-2 cells; assay: Annexin V-FITC/Propidium iodide dual staining apoptosis assay; assay type: cell-based, human; settings: HepG-2, 24 h
Procedure: Liver HepG-2 cancer cells were used in the Annexin V-FITC/Propidium iodide dual staining assay[40] to calculate the percentage of apoptosis induced by compound 5a. As shown in Figs. 6 and Fig. 7, compound 5a induces the early apoptosis in HepG-2 after 24 h incubation by (19.61%) 41.72 folds over the untreated cells (0.47%). Also, it enhances the late apoptotic induction by 11.89% compared to untreated control (0.16%). Cumulatively, compound 5a induced total apoptosis (35.28%) 14.57 folds over the untreated cells (2.42%).
Apoptosis induction for 5a was performed using the HepG-2 cell lines and well-established Annexin 5-FITC/PI detection kit similar to the reported procedures.

[3] = biological target: EGFR-TK (Homo sapiens, UniProt P00533); assay: EGFR-TK inhibition assay
[4] = test system: HCT116; assay: MTT anti-proliferative assay, HCT116; assay type: cell-based; settings: Homo sapiens, HCT-116, mean ± SD of three independent experiments
Procedure: (§1) Doxorubicin (DOX) was used as a reference drug.
(§2) Cell lines were obtained from ATCC via Holding company for biological products and vaccines (VACSERA), Cairo, Egypt. Doxorubicin (Dox.) is used as a standard anticancer drug. This colorimetric assay is based on the conversion of yellow (MTT) to a purple formazan derivative by mitochondrial succinate dehydrogenase in viable cells. This colorimetric assay was performed according to the reported method[36],[37].

[5] = biological target: HER3 (Homo sapiens, UniProt P21860); assay: HER3 inhibition assay
[6] = test system: WI-38; assay: MTT cytotoxicity against normal fibroblast cells WI-38; settings: Homo sapiens, WI-38, read-out: IC50 WI-38
[7] = test system: HePG-2; assay: MTT anti-proliferative assay, HepG-2; settings: Homo sapiens, HepG2, read-out: IC50 HePG-2
[8] = biological target: HER4 (Homo sapiens, UniProt Q15303); assay: HER4 inhibition assay
[9] = test system: HepG-2 cells; assay: Cell cycle analysis by PI flow cytometry; assay type: cell-based, human
Procedure: Cell cycle analysis for compound 5a was performed using the HepG-2 cell lines stained with propidium iodide (PI) and FACSCalibur flow cytometer as mentioned in previous reports.

[10] = biological target: HER2 (Homo sapiens, UniProt P04626); assay: HER2 inhibition assay
[11] = test system: MCF7; assay: MTT anti-proliferative assay, MCF7; assay type: cell-based; settings: Homo sapiens, mean ± SD of three independent experiments
Procedure: as §1, §2

[12] = test system: BAX, BCL-2, Cyto c, Casp. 6, 7, 9 and Survivin in HepG-2 cells; assay: RT-PCR gene expression of apoptotic markers; assay type: cell-based, human; settings: HepG-2, control = 1
From the text: The B cell lymphoma-2 (Bcl-2) family of proteins, which includes pro-apoptotic (Bax, Bak, Bid, and Bad) and anti-apoptotic (Bcl-2, Bcl-xL, and Bcl-w) proteins, mediates the mitochondrial or intrinsic apoptosis pathway. These proteins cause apoptosis by influencing the permeability of the mitochondrial membrane, which results in the release of cytochrome c into the cytosol. The Bax/Bcl-2 ratio is frequently employed as a marker of cell death and is essential for controlling mitochondrial cytochrome c release. It is thought that caspases perform critical functions in modulating the mitochondrial pathway. After cytochrome c is released into the cytosol, caspase-9 is triggered. Caspase-9 can activate effector caspases, such as caspase-3, 6 and 7, which cause cells to enter apoptosis. The various target proteins that the effector caspases cleave are widely dispersed throughout the cell, which causes the morphological modifications that are indicative of apoptosis. Apoptosis is inhibited by the anti-apoptotic protein survivin, which regulates the actions of caspase-9 and effector caspases.
Gene expression analysis was performed by using (iScriptTM OneStep RT-PCR Kit with SYBR® Green) from Bio-Rad according to reported procedure.

[13] = test system: HCT116, HepG-2 and MCF7; assay: MTT assay, all three cancer cell lines (summary range); settings: Homo sapiens, read-out: IC50 range against all cancer cell lines
[14] = test system: EGFR; settings: cited from earlier work
[15] = test system: MCF-7; settings: cited from earlier work

Sequence of EGFR-TK (P00533 25-1210): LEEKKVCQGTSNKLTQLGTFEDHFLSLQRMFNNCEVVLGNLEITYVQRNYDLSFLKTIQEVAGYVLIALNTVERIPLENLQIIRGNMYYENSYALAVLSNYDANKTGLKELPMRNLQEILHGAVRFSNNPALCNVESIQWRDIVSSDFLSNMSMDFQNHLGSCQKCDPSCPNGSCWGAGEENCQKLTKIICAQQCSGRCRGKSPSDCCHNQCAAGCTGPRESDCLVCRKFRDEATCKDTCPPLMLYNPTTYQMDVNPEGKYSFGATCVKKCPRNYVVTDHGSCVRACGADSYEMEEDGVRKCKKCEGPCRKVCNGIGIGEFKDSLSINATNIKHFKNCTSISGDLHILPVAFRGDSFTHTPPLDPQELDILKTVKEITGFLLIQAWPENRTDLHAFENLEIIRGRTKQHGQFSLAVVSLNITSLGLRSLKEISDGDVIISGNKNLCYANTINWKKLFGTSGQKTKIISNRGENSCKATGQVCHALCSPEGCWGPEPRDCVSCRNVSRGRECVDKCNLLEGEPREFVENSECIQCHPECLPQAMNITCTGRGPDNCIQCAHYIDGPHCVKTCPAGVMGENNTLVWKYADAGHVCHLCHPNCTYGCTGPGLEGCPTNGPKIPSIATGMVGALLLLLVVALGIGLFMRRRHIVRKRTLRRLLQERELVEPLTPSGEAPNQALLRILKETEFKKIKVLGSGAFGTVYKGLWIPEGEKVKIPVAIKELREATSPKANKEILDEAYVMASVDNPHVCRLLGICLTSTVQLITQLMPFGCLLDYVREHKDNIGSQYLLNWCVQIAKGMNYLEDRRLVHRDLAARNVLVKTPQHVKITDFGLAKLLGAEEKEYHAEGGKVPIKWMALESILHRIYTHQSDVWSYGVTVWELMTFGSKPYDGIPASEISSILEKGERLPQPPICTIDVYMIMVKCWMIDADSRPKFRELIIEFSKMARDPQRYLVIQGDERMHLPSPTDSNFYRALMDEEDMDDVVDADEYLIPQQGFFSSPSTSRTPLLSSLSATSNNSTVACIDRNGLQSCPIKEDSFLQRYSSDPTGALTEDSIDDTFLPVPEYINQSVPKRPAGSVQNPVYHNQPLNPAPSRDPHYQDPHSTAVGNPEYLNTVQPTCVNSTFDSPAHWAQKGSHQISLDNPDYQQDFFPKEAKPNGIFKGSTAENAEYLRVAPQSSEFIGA
Sequence of HER3 (P21860 20-1342): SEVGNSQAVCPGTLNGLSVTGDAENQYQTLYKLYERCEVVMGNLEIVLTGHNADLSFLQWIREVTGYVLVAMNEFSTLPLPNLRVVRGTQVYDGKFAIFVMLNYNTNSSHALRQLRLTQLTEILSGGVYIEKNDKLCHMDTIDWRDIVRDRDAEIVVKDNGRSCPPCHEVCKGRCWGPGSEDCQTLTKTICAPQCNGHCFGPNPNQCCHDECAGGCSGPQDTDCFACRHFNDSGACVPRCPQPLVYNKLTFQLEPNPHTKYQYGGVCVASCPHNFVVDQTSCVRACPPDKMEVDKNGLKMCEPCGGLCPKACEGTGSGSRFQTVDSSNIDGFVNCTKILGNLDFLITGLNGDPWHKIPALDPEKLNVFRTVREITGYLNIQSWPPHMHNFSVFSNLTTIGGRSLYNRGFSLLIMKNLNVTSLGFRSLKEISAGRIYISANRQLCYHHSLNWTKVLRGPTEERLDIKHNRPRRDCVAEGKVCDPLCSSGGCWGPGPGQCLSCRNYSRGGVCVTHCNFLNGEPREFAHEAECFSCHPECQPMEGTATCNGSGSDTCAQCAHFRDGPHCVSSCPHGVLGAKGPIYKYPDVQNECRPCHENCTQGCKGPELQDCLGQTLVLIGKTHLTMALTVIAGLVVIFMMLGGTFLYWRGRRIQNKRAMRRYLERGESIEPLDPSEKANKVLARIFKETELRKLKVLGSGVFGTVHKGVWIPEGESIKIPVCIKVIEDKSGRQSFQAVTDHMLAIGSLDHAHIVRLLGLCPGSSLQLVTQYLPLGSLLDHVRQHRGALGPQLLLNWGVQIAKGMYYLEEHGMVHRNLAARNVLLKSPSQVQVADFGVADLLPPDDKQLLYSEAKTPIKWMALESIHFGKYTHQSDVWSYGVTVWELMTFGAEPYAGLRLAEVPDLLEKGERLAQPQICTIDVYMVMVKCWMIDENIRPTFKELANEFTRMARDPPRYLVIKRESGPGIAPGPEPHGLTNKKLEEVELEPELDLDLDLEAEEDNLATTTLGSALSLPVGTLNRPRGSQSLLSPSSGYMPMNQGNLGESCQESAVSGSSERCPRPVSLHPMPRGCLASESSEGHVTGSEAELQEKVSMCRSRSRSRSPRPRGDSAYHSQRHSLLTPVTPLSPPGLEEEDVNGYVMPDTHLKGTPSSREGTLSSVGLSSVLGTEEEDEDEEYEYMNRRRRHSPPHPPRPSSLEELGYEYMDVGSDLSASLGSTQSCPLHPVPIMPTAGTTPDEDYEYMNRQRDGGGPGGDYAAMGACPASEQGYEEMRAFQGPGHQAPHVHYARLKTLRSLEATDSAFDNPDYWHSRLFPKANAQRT
Sequence of HER4 (Q15303 26-1308): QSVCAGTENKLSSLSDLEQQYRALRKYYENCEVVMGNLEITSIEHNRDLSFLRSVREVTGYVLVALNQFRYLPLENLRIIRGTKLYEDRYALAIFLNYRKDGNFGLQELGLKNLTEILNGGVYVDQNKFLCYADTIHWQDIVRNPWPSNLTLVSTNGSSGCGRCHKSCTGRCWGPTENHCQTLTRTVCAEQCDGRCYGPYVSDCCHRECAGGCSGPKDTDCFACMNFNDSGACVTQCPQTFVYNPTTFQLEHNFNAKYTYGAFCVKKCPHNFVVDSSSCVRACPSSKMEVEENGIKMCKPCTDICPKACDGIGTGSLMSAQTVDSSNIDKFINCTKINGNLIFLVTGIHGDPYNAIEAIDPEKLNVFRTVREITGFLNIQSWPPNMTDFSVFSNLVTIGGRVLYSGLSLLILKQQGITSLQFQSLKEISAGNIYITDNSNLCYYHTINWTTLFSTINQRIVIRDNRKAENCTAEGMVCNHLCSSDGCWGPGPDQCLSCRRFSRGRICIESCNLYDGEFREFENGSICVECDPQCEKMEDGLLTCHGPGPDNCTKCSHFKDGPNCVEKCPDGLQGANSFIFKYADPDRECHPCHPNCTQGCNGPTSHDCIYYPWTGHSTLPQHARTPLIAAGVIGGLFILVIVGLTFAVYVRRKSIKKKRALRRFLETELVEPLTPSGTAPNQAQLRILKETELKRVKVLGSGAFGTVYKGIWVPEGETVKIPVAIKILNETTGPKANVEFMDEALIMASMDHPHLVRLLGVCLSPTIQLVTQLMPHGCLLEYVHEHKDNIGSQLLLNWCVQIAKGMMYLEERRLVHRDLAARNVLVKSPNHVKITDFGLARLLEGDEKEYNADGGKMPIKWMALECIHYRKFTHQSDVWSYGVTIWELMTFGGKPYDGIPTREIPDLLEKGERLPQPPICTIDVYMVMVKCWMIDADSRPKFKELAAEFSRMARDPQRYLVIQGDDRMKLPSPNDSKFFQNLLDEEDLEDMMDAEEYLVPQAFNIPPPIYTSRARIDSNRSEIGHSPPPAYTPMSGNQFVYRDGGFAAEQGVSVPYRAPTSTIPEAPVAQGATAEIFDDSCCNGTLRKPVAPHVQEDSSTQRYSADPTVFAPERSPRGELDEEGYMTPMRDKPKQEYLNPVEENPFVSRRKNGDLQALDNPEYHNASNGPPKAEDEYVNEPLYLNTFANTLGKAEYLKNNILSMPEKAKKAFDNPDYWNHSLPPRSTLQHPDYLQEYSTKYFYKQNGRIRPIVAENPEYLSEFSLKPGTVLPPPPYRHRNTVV
Sequence of HER2 (P04626 23-1255): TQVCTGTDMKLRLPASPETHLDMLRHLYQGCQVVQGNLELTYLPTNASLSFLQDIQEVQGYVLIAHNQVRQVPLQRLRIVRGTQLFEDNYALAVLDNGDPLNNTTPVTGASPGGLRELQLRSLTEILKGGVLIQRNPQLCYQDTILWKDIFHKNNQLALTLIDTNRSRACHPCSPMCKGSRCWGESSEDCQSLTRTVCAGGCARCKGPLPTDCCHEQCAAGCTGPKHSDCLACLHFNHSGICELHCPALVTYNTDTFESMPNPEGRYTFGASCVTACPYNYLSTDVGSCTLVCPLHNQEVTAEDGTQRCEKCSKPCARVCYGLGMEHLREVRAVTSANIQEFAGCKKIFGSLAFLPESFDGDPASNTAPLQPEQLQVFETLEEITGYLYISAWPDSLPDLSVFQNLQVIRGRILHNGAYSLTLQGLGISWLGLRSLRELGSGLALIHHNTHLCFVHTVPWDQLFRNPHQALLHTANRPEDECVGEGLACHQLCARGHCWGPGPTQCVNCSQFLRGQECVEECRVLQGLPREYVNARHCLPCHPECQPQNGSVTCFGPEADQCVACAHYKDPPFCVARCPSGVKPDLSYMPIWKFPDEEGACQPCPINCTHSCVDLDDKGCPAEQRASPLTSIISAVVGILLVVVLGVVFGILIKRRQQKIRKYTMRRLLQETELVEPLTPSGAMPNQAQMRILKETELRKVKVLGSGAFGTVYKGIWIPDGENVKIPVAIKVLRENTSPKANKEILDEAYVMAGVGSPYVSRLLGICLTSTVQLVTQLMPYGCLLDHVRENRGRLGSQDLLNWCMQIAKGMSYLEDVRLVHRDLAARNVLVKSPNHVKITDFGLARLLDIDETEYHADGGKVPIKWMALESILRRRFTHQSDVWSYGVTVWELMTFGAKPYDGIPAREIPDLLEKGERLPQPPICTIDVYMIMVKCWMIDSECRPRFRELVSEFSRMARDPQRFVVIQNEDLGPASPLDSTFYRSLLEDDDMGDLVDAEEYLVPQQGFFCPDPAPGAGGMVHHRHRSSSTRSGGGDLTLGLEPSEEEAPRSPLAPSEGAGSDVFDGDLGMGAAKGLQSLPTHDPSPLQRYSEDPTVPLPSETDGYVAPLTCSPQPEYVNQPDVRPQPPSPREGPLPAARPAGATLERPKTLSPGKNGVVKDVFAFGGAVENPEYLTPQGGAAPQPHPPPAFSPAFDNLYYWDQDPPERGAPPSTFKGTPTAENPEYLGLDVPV

Row | IC50 [4] | IC50 [11] | melting point | SMILES | IC50 [6] | IC50 [7] | further results
1 | 64.4 ± 3.7 µM | 78.5 ± 4.1 µM | – | c1ccc(COc2ccc(-c3nnc(SCc4ccccc4)o3)cc2)cc1 [Compound 5a, 2-(4-(Benzyloxy)phenyl)-5-(benzylthio)-1,3,4-oxadiazole] | 53.9 ± 3 µM | 35.6 ± 2.2 µM | ROS [1]: 247.8 pg/mL and 247.8 ± 31.1 pg/mL; ROS Fold ([1]; HepG-2, versus control = 1): 2.34 fold; early apoptosis, folds over the untreated cells [2]: 41.72 folds; total apoptosis, folds over the untreated cells [2]: 14.57 folds; late apoptosis (Q2) ([2]; untreated 0.16%): 11.89%; early apoptosis (Q4) ([2]; untreated 0.47%): 19.61%; IC50 [3]: 0.09 µM; IC50 [5]: 0.18 ± 0.006 µM; IC50 [8]: 0.37 ± 0.015 µM; Comment (cell cycle arrest phase) ([9]; HepG-2, 24 h): arrested the cell cycle on HepG-2 at a G1/S phase; also recorded: cell cycle arrest at G1/S phase; also recorded: cell growth arrest at G1/S; %G2/M ([9]; HepG-2, IC50 concentration, 24 h, untreated control 17.05): 6.64%; %S ([9]; HepG-2, IC50 concentration, 24 h, untreated control 37.09): 41.03%; %G0-G1 ([9]; HepG-2, IC50 concentration, 24 h, untreated control 45.86): 52.33%; IC50 [10]: 0.72 ± 0.028 µM; RT-PCR Fold Change Bax [12]: 4.95 fold; RT-PCR Fold Change Casp. 6 [12]: 6.67 fold; RT-PCR Fold Change Casp. 7 [12]: 7.57 fold; RT-PCR Fold Change Casp. 9 [12]: 4.23 fold; RT-PCR Fold Change Cyto c [12]: 3.82 fold
2 | 73.2 ± 4.2 µM | 84.3 ± 4.4 µM | 125 to 127 °C | Clc1ccc(CSc2nnc(-c3ccc(OCc4ccccc4)cc3)o2)cc1 [Compound 5b, 2-(4-(Benzyloxy)phenyl)-5-((4-chlorobenzyl)thio)-1,3,4-oxadiazole] | 13.2 ± 1.1 µM | 38.1 ± 2.2 µM | –
3 | 79.8 ± 4.4 µM | 92.2 ± 4.9 µM | 130 to 132 °C | Cc1ccc(CSc2nnc(-c3ccc(OCc4ccccc4)cc3)o2)cc1 [Compound 5c, 2-(4-(Benzyloxy)phenyl)-5-((4-methylbenzyl)thio)-1,3,4-oxadiazole] | > 100 µM | 71.4 ± 3.9 µM | –
4 | 88.6 ± 4.8 µM | > 100 µM | 83 to 85 °C | c1ccc(COc2ccc(-c3nnc(SC4CCCCCC4)o3)cc2)cc1 [Compound 5d, 2-(4-(Benzyloxy)phenyl)-5-(cycloheptylthio)-1,3,4-oxadiazole] | 46.6 ± 2.7 µM | 82.8 ± 4.5 µM | –
5 | 75.6 ± 4.2 µM | 86.8 ± 4.5 µM | 91 to 93 °C | c1ccc(COc2ccc(-c3nnc(SC4CCCC4)o3)cc2)cc1 [Compound 5e, 2-(4-(Benzyloxy)phenyl)-5-(cyclopentylthio)-1,3,4-oxadiazole] | 11.7 ± 0.9 µM | 59.3 ± 3.4 µM | –
6 | > 100 µM | > 100 µM | 100 to 102 °C | CCOC(=O)CSc1nnc(-c2ccc(OCc3ccccc3)cc2)o1 [Compound 5f., Ethyl 2-((5-(4-(benzyloxy)phenyl)-1,3,4-oxadiazol-2-yl)thio)acetate] | 77.3 ± 3.9 µM | 91.3 ± 5 µM | –
7 | 55.3 ± 3.1 µM | 46.1 ± 2.5 µM | 93 to 95 °C | CC(=O)N1N=C(c2ccc(OCc3ccccc3)cc2)CC1c1cccc(Br)c1 (stereo not shown) [Compound 9a, 1-(3-(4-(Benzyloxy)phenyl)-5-(3-bromophenyl)-4,5-dihydro-1H-pyrazol-1-yl)ethan-1-one] | 85.1 ± 4.1 µM | 32.6 ± 2.1 µM | –
8 | 10.2 ± 0.9 µM | 15.2 ± 1.2 µM | 127 to 129 °C | CC(=O)N1N=C(c2ccc(OCc3ccccc3)cc2)CC1c1cccc([N+](=O)[O-])c1 (stereo not shown) [Compound 9b, 1-(3-(4-(Benzyloxy)phenyl)-5-(3-nitrophenyl)-4,5-dihydro-1H-pyrazol-1-yl)ethan-1-one] | 55.9 ± 3.2 µM | 7.83 ± 0.5 µM | IC50 [3]: 0.2 ± 0.01 µM
9 | 16.2 ± 1.2 µM | 8.53 ± 0.6 µM | 85 to 87 °C | COc1ccc(C2CC(c3ccc(OCc4ccccc4)cc3)=NN2C(C)=O)cc1OC (stereo not shown) [Compound 9c, 1-(3-(4-(Benzyloxy)phenyl)-5-(3,4-dimethoxyphenyl)-4,5-dihydro-1H-pyrazol-1-yl)ethan-1-one] | 49.6 ± 2.8 µM | 12.2 ± 0.9 µM | –
10 | 9.94 ± 0.8 µM | 8.11 ± 0.6 µM | 86 to 88 °C | Brc1cccc(C2CC(c3ccc(OCc4ccccc4)cc3)=NN2)c1 (stereo not shown) [Compound 10a, 3-(4-(Benzyloxy)phenyl)-5-(3-bromophenyl)-4,5-dihydro-1H-pyrazole] | 62.3 ± 3.4 µM | 6.32 ± 0.4 µM | IC50 [3]: 0.7 ± 0.03 µM
11 | 8.73 ± 0.7 µM | 5.97 ± 0.3 µM | 108 to 110 °C | O=[N+]([O-])c1cccc(C2CC(c3ccc(OCc4ccccc4)cc3)=NN2)c1 (stereo not shown) [Compound 10b, 3-(4-(Benzyloxy)phenyl)-5-(3-nitrophenyl)-4,5-dihydro-1H-pyrazole] | 37.9 ± 2.3 µM | 3.98 ± 0.2 µM | IC50 [3]: 0.16 µM
12 | 5.55 ± 0.3 µM | 2.86 ± 0.1 µM | 128 to 130 °C | COc1ccc(C2CC(c3ccc(OCc4ccccc4)cc3)=NN2)cc1OC (stereo not shown) [Compound 10c, 3-(4-(Benzyloxy)phenyl)-5-(3,4-dimethoxyphenyl)-4,5-dihydro-1H-pyrazole] | 41.2 ± 2.4 µM | 1.82 ± 0.1 µM | IC50 [3]: 0.27 ± 0.01 µM; IC50 [13]: 1.82 to 5.55 µM
13 | – | – | – | COc1cccc2c1C(=O)c1c(O)c3c(c(O)c1C2=O)C[C@@](O)(C(=O)CO)C[C@@H]3O[C@H]1C[C@H](N)[C@H](O)[C@H](C)O1 [DOX, Doxorubicin, reference compound] | – | 4.5 ± 0.2 µM | –
14 | – | – | – | COc1cc2ncnc(Nc3ccc(F)c(Cl)c3)c2cc1OCCCN1CCOCC1 [Gefitinib, reference compound] | – | – | ROS [1]: 260 ± 14.7 pg/mL; ROS ([1]; listed as gefitinib): 260 pg/mL
15 | – | – | – | Nc1ccccc1-c1nnc(SCc2ccccc2)o1 [III] | – | – | IC50 [14]: 1.51 µM
16 | – | – | – | O=C(CSc1nnc(-c2ccc3nccnc3c2)o1)c1ccc([N+](=O)[O-])cc1 [II] | – | – | IC50 [14]: 0.95 µM
17 | – | – | – | COc1ccc(C2=NN(C(C)=O)C(/C=C/c3ccccc3)C2)cc1 (stereo not shown) [IV] | – | – | IC50 [15]: 4.33 µM; IC50 [14]: 0.46 µM
18 | – | – | – | Nc1cc(-c2nnc(SCC(=O)c3ccccc3)o2)ccn1 [I] | – | – | IC50 [15]: 0.01 µM
19 | – | – | – | NC(=O)N1N=C(c2ccncc2)CC1c1cn(-c2ccccc2)nc1-c1ccc(OCc2ccccc2)cc1 (stereo not shown) [VI] | – | – | IC50 [14]: 3.65 µM
20 | – | – | – | CC(=O)N1N=C(c2ccc(-c3cncnc3)cc2)CC1c1ccc(F)cc1 (stereo not shown) [V] | – | – | EGFR inhibition rate ([14]; 0.19 μM concentration): 83%; EGFR inhibition rate ([14]; 50 μM concentration): 82%
